Results on two compounds are retold here after PMC9769880, “Diverse Sensory Repertoire of Paralogous Chemoreceptors Tlp2, Tlp3, and Tlp4 in Campylobacter jejuni” (Microbiology Spectrum, 2022).

Where two headings read alike, the source gives them in different places. Some results are limits rather than exact numbers.

In test [1] the target is T1, Tlp3 (Campylobacter jejuni, UniProt Q0P864). As to the kind of experiment: biochemical. The class given is binding. The procedure:
His-tagged proteins (Tlp2, -3, and -4) were prepared as previously described ([11]) DNA segments encoding the periplasmic sensory domains (33 to 286 amino acids) of Tlp2 and (38 to 297 amino acids) of Tlp4 were amplified (see Table S7), ligated into pGEM-T Easy (Promega) and subcloned into pET-19b (Novagen) (see Table S6). Recombinant proteins were expressed in E. coli BL21(DE3) using 1 mM IPTG (isopropyl-β-D-thiogalactopyranoside) and purified using His-select-nickel chromatography as described previously ([8], [11]). […] Protein concentrations were determined using a NanoDrop spectrophotometer (Thermo Fisher).
(§1) Surface plasmon resonance (SPR) experiments were performed as described previously ([10], [11]) with the following modifications. […] All ligands were prepared in PBS (pH 7.2) and serially diluted from 0.2 to 0.0125 mM. A 10-min dissociation period was allocated after the introduction of each analyte. SPR experiments were performed in single-cycle kinetics mode using the BIAcore S200 biosensor system (Cytiva) at 25°C in PBS (pH 7.2) at a flow rate of 30 μL/min. The equilibrium dissociation constant (KD) for each analyte was determined using BIAcore S200 Evaluation software with a report point 4 s after the injection stop to account for the bulk transfer of the small molecule against a large amount of immobilized protein (as shown in Fig. S5).

Test [2] relates to Tlp3. The class given is cell-based, C. jejuni 11168-O. The procedure:
(§2) The biological relevance of the binding specificities of the Tlp2,3,4 cluster was assessed by examining chemotactic responses of C. jejuni 11168-O tlp2, tlp3, and tlp4 wild-type (WT) and mutant strains using a nutrient-depleted chemotaxis assay. All ligands, with the exception of lysine and cysteine, interacted with Tlp2 and Tlp4 as attractants (Table 1), showing an ~1- to ~2-log decrease (P < 0.05) in migration toward the ligand compared to the WT strain.
(§3) Chemotaxis assays—the nutrient-depleted chemotaxis assay and the modified hard agar plug assay (tHAP)—were performed as previously described ([11], [34]). The chemotactic responses of all isogenic strains were compared to that of the C. jejuni 11168-O wild-type strain to distinguish between chemoattractants and chemorepellents. For the nutrient-depleted chemotaxis and modified hard agar plug (tHAP) assays, all differences were calculated as changes on a log10 scale. Controls were provided by using nonmotile (C. jejuni 81116 flaAB) and nonchemotactic (C. jejuni NCTC 11168 cheY) mutants ([69]) and mucin as negative and positive controls ([10]).

Test [3] addresses T2, Tlp2 (Campylobacter jejuni, UniProt Q0PBZ3). Description: biochemical. Format: binding. The conditions noted are these: read-out: Tlp2 Affinity. The procedure: (§4) His-tagged proteins (Tlp2, -3, and -4) were prepared as previously described ([11]) DNA segments encoding the periplasmic sensory domains (33 to 286 amino acids) of Tlp2 and (38 to 297 amino acids) of Tlp4 were amplified (see Table S7), ligated into pGEM-T Easy (Promega) and subcloned into pET-19b (Novagen) (see Table S6). Recombinant proteins were expressed in E. coli BL21(DE3) using 1 mM IPTG (isopropyl-β-D-thiogalactopyranoside) and purified using His-select-nickel chromatography as described previously ([8], [11]). The purity of the proteins was confirmed by SDS-PAGE and Western blot analysis with anti-His antibodies (Bio-Rad). Protein concentrations were determined using a NanoDrop spectrophotometer (Thermo Fisher).
as §1, with “modifications. Briefly, purified proteins were diluted to 0.15 μM in sodium acetate (pH 4.0) and immobilized onto an active flow cell of a CM5 sensor chip with a flow rate of 5 μL/min for 7 min of contact time using a standard amine coupling protocol. Immobilized protein levels for all three proteins ranged from 6028.3 to 9779.3 response units (RU) providing a minimum expected response maximum (RMax) between 20 and 50 RU for the small molecules tested.” for “modifications.”

The target of test [4] is T3, Tlp4 (Campylobacter jejuni, UniProt Q0PBP3). As to the kind of experiment: biochemical. The conditions noted are these: read-out: Tlp4 Affinity. The class given is binding. As for the experimental part: as §4
as §1, with “modifications. Briefly, purified proteins were diluted to 0.15 μM in sodium acetate (pH 4.0) and immobilized onto an active flow cell of a CM5 sensor chip with a flow rate of 5 μL/min for 7 min of contact time using a standard amine coupling protocol. Immobilized protein levels for all three proteins ranged from 6028.3 to 9779.3 response units (RU) providing a minimum expected response maximum (RMax) between 20 and 50 RU for the small molecules tested.” for “modifications.”

In test [5] the target is T4, Tlp3^LBD D169A (Campylobacter jejuni, UniProt Q0P864, D169A). As to the kind of experiment: biochemical.
Test [6] has as its target T5, Tlp3^LBD W151A (Campylobacter jejuni, UniProt Q0P864, W151A). The note with it: compared to WT Tlp3^LBD, P < 0.05.
For test [7], the target named is T6, Tlp3^LBD K149A (Campylobacter jejuni, UniProt Q0P864, K149A). As to the kind of experiment: biochemical.
The next test concerns the target Tlp3^LBD D170A (Campylobacter jejuni, UniProt Q0P864). As to the kind of experiment: biochemical.
For test [8], the target named is T5, Tlp3^LBD W151A. As to the kind of experiment: biochemical.
A further test deals with Tlp3^LBD D196A (Campylobacter jejuni, UniProt Q0P864, D196A). Description: biochemical.
Test [9] concerns the target T4, Tlp3^LBD D169A. The note with it: compared to WT Tlp3^LBD, P < 0.05.
Test [10] has as its system Tlp4. Format: cell-based, C. jejuni 11168-O. The conditions noted are these: nutrient-depleted chemotaxis assay. As for the experimental part:
as §2, §3

For test [11], the system named is Tlp2. Format: cell-based, C. jejuni 11168-O. The conditions noted are these: nutrient-depleted chemotaxis assay. As for the experimental part:
as §2, §3

Test [12] deals with T2, Tlp2. The class given is binding. The conditions noted are these: yes/no binding. As for the experimental part:
(§5) Glycan (>400 monosaccharides or complex glycans) and small molecule arrays containing amino acids and salts were performed as described previously by Day et al. ([67]). Briefly, 1 μg of purified recombinant protein was complexed with anti-His antibody (Cell Signaling Technology) and rabbit anti-mouse/goat anti-rabbit Alexa 555-IgG (Thermo Scientific) at a molar ratio of 1:0.5:0.25 and then incubated on the array for […] in phosphate-buffered saline (PBS). The array slides were scanned at 488/520 nm and analyzed using InnoScan 1100 with MAPIX software. All arrays were performed in triplicate with a total of 12 data points for each glycan tested; the complete data set and MIRAGE (i.e., minimum information regarding a glycomics experiment) results are shown in Tables S3 and S8.
(§6) Table S8 - Supplementary glycan microarray document based on M IRAGE guidelines. D O I:
(§7) Classification Guidelines
(§8) 1. Sample: Glycan Binding Sample
(§9) Origin: Helicobacter pylori SS1; produced as a recombinant His - tagged protein in E.
(§10) The preparation of Tlp2,3, and 4 is explained in the Materials and Methods section:
(§11) Expression and purification of the periplasmic domain of Tlp2,3, and 4.
(§12) Sample Sample is a His Tagged protein containing only the periplasmic receptor domain of the modifications full length Tlp2,3, and 4transmembrane protein.
(§13) Please see Materials and Methods: Tlps 2/3/4 bind to a range of ligands, including […]
(§14) Proteins were complexed with mouse anti- his antibody, with secondary and tertiary AlexaFluor555 antibodies (rabbit anti-mouse, goat anti-rabbit) at a molar ratio of 4:2:1.
(§15) The protein/antibody complex was incubated on ice for 10 mins prior to placing on the Assay protocol array. Arrays were performed with 1 µg of complexed protein incubated on the array for 20 min. Arrays were then washed 3 times in Array PBS (PBS + 2mM MgCl2 + 2mM CaCl2) then dried by centrifugation for 3 min at 300 x g . Scanning was performed us ing an Innopsys InnoScan 1100AL and analyzed using Mapix (Innopsys). Yes/no binding was determined by six positive replicate spots in three replicate experiments. Positive […]
(§16) Glycan Glycans in this study are listed in Table S2 and is a published library in doi:
(§17) Glycans were prepared in one of two ways for printing:
(§18) Glycan 1. Glycans (with IDs in number/letter format; e.g. 1A, 4C, 7K) were sourced modifications commercially from Dextra Laboratories, Elicityl and Carbosythn and were made into glycoamines using the protocol published in Day et al 2009 (doi:
(§19) Glycan arrays: We only use glycan arrays as a yes/no binding tool. Due to this we look only at binding that is unambiguously above background vs lack of binding above background. Average background + 3x standard deviation of the background of 20 sets of 4 spots of DMF:DMSO only spots is applied to determine if binding observed is […]
(§20) Only spots with values equal to or greater than this value were considered as binding from data of any tested slide. These values are slide […]
(§21) Data Small molecule arrays: We only use amino acid arrays as a yes/no binding tool. Due interpretation to this we look only at binding that is unambiguously above background vs lack of binding above background. Average background + 3x standard deviation of the background of 6 spots of PBS + 2% glycerol only spots is applied to determine if […]
(§22) Only spots with values equal to or greater than this value were considered as binding from data of any tested slide. These values are slide dependent. […]

In test [13] the target is T3, Tlp4. The class given is binding. The note with it: yes/no binding. The procedure: as §5, §6, §7, §8, §9, §10, §11, §12, §13, §14, §15, §16, §17, §18, §19, §20, §21, §22
For test [14], the target named is T1, Tlp3. As to the kind of experiment: Glycan/small molecule arrays with Tlp3. The conditions noted are these: yes/no binding. The procedure:
as §5, §6, §7, §8, §9, §10, §11, §12, §13, §14, §15, §16, §17, §18, §19, §20, §21, §22

Test [15] addresses T6, Tlp3^LBD K149A. The note with it: compared to WT Tlp3^LBD, P < 0.05.
Setting [16] is: SPR KD, mean ± SD, NB = no binding.

T3 sequence (Q0PBP3 entry or part of it): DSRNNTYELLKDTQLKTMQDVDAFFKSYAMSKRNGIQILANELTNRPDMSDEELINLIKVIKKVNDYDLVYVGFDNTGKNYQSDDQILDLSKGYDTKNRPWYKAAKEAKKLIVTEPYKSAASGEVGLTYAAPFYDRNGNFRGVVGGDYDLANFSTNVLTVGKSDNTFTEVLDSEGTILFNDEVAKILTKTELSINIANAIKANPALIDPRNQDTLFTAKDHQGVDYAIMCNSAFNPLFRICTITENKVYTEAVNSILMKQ
T2 sequence (Q0PBZ3 entry or part of it): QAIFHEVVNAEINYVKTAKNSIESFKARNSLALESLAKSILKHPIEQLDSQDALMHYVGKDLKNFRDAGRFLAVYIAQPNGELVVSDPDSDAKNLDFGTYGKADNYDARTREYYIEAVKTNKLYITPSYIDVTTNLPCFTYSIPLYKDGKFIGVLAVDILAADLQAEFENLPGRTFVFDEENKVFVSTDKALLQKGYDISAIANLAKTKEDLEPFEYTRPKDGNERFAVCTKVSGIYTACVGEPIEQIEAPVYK
T5 sequence (Q0P864 41-290 W151A): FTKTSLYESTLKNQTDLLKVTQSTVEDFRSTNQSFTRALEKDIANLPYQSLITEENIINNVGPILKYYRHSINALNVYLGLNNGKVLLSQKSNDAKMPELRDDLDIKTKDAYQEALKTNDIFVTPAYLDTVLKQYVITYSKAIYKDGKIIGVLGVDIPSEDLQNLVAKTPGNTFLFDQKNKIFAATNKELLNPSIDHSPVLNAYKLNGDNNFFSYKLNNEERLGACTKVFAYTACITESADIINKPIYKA
T6 sequence (Q0P864 41-290 K149A): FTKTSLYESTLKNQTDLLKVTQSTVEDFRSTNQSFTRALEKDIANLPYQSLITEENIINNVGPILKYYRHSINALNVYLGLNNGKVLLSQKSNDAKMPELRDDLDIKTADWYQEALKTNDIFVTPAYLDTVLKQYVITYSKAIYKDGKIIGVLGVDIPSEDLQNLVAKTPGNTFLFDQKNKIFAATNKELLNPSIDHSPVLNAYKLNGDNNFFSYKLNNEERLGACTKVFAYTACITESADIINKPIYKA
T4 sequence (Q0P864 41-290 D169A): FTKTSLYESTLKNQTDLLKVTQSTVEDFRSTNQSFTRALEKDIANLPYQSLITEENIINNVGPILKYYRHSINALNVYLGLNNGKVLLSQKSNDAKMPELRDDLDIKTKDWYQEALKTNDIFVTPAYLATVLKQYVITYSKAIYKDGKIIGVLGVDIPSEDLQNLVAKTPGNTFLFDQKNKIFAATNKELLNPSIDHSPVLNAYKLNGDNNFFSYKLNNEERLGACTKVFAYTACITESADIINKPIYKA
T1 sequence (Q0P864 entry or part of it): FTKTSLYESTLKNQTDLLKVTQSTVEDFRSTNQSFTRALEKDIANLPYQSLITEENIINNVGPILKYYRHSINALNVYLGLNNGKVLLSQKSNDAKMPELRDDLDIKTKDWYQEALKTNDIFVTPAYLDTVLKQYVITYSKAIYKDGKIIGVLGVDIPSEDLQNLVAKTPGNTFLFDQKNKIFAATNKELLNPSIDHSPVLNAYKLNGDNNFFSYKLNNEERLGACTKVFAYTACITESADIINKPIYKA
Sequence of Tlp3^LBD D196A (Q0P864 41-290 D196A): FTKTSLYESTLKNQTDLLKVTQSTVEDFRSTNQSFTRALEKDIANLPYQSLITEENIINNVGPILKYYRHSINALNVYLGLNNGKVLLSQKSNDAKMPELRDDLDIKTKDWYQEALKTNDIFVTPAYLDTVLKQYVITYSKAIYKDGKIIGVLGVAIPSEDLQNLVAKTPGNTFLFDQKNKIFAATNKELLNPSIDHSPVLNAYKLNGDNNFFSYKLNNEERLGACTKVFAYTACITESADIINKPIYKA
Sequence of Tlp3^LBD D170A (Q0P864 41-290 T170A): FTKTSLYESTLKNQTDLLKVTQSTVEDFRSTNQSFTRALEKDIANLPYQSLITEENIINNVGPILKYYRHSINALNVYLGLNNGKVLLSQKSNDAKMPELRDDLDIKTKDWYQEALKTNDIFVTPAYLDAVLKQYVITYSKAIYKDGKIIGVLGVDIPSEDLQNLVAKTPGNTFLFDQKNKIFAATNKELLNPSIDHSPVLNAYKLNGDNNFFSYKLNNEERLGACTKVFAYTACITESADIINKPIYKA

As to `Cc1ncc(C[n+]2csc(CCO)c2C)c(N)n1` [Thiamine], the Kd is 41.4 ± 5.9 µM at Tlp3 [1]; above 200 µM at Tlp2 [3]; above 200 µM on Tlp4 [4]; 62 ± 8.5 µM at Tlp3^LBD D169A [5]; 53.8 ± 6.6 µM on Tlp3^LBD K149A [7]; 30.6 ± 7.2 µM on Tlp3^LBD D170A. The Kd on Tlp3^LBD W151A [8] was found to be 73.3 ± 4.4 µM; at Tlp3^LBD D196A it was 36.8 ± 10 µM. Moreover, the “Tlp3 CR (chemoresponse)” value in the test on Tlp3 [2] is listed as “R”. The “reduction in the affinity/binding of Tlp3^LBD, substitution W151A” value at Tlp3^LBD W151A [6] was found to be 1 fold.
In the case of `OC[C@H]1OC(O)[C@@H](O)[C@@H](O)[C@@H]1O` (stereo partly drawn) [Mannose], the “reduction in the affinity of Tlp3^LBD, substitution D169A” value at Tlp3^LBD D169A [9] was 2 fold. Further, in the test on Tlp3 [2] (chemotaxis of mutant compared to WT strain), the “Tlp3 CR (chemoresponse)” value was “R”. Also, the “chemotactic response via Tlp3” value in the test on Tlp3 [2] (nutrient-depleted chemotaxis assay) is given as “repellents”. The “chemotactic response via Tlp4” value in the test on Tlp4 [10] is reported as “attractants”. For the same compound, in the test on Tlp2 [11], the “chemotactic response via Tlp2” value is on record as “attractants”. Also, the Kd worked out at 12.9 ± 1.8 µM at Tlp2 [3] (setting [16]) and 7.8 ± 1 µM on Tlp4 [4] (setting [16]). In addition, at Tlp2 [12], the “binding to Tlp2 on glycan/small molecule array” value is listed as “interacted”. In addition, the “binding to Tlp4 on glycan/small molecule array” value at Tlp4 [13] was “interacted”. For the same compound, on Tlp3 [14], the “binding to Tlp3 on glycan/small molecule array” value is given as “interacted”. Moreover, on Tlp3^LBD K149A [15], the “reduction in the affinity of Tlp3^LBD, substitution K149A” value came to 2 fold.
